# Assay results reported in ChEMBL document CHEMBL4190162, “SAR and identification of 2-(quinolin-4-yloxy)acetamides as Mycobacterium tuberculosis cytochrome bc1 inhibitors” (Medchemcomm, 2016).
# How the values were obtained:
# [1] = tested on: Mycobacterium tuberculosis; test: Antimycobacterial activity against Mycobacterium tuberculosis H37Rv harboring cyd deletion mutant measured after 2 weeks by microplate alamar blue assay; assay type: functional
# [2] = tested on: Mycobacterium tuberculosis H37Rv; test: Inhibition of QCR7 S182T mutant in Mycobacterium tuberculosis H37Rv harboring cyd deletion mutant assessed as reduction in bacterial growth relative to wild-type QCR7
# [3] = tested on: Mycobacterium tuberculosis H37Rv; test: Inhibition of QCR6 A317T mutant in Mycobacterium tuberculosis H37Rv harboring cyd deletion mutant assessed as reduction in bacterial growth relative to wild-type QCR6
# [4] = tested on: Mycobacterium tuberculosis H37Rv; test: Inhibition of QCR4 A396T mutant in Mycobacterium tuberculosis H37Rv harboring cyd deletion mutant assessed as reduction in bacterial growth relative to wild-type QCR4
# [5] = tested on: Mycobacterium tuberculosis H37Rv; test: Inhibition of QCR3 W312G mutant in Mycobacterium tuberculosis H37Rv harboring cyd deletion mutant assessed as reduction in bacterial growth relative to wild-type QCR3
# [6] = tested on: Mycobacterium tuberculosis H37Rv; test: Inhibition of QCR2 M342T mutant in Mycobacterium tuberculosis H37Rv harboring cyd deletion mutant assessed as reduction in bacterial growth relative to wild-type QCR2
# [7] = tested on: Mycobacterium tuberculosis H37Rv; test: Inhibition of QCR1 A317V mutant in Mycobacterium tuberculosis H37Rv harboring cyd deletion mutant assessed as reduction in bacterial growth relative to wild-type QCR1
# [8] = tested on: Mycobacterium tuberculosis H37Rv; test: Inhibition of QCR5 M342I mutant in Mycobacterium tuberculosis H37Rv harboring cyd deletion mutant assessed as reduction in bacterial growth relative to wild-type QCR5
Structure (SMILES),MIC [1] [µM],fold change (FC) [2],fold change (FC) [3],fold change (FC) [4],fold change (FC) [5],fold change (FC) [6],fold change (FC) [7],fold change (FC) [8]
COc1ccccc1NC(=O)COc1cc(C)nc2ccc(Cl)cc12,1.09,–,–,–,–,–,–,–
COc1ccc2nc(C)cc(OCC(=O)NCCCc3ccccc3)c2c1,2.14,–,–,–,–,–,–,–
C#CCNC(=O)COc1cc(C)nc2ccc(OC)cc12,21.98,–,–,–,–,–,–,–
COc1ccc2nc(C)cc(OCC(=O)Nc3ccc(Br)cc3)c2c1,0.17,–,–,–,–,–,–,–
COc1ccccc1NC(=O)COc1cc(C)nc2ccc(C)cc12,0.45,–,–,–,–,–,–,–
COc1ccccc1NC(=O)COc1cc(C)nc2ccc(C(F)(F)F)cc12,>128,–,–,–,–,–,–,–
COc1ccccc1NC(=O)COc1cc(C)nc2ccc(Br)cc12,0.5,–,–,–,–,–,–,–
COc1ccccc1NC(=O)COc1cc(C)nc2ccccc12,7.13,–,–,–,–,–,–,–
COc1ccc(OC)c(CCNC(=O)COc2cc(C)nc3ccc(OC)cc23)c1,7.62,–,–,–,–,–,–,–
COc1ccc(NC(=O)COc2cc(C)nc3ccc(OC)cc23)c(OC)c1,0.18,–,–,–,–,–,–,–
COc1ccc2nc(C)cc(OCC(=O)Nc3ccc(-c4ccccc4)cc3)c2c1,0.12,–,–,–,–,–,–,–
COc1ccc2nc(C)cc(OCC(=O)Nc3ccc(OC)c(OC)c3)c2c1,3.14,–,–,–,–,–,–,–
COc1cc(NC(=O)COc2cc(C)nc3ccc(OC)cc23)cc(OC)c1,2.04,–,–,–,–,–,–,–
Nc1ccc(C(=O)O)c(O)c1 [AMINOSALICYLIC ACID],0.6,0.5,0.2,0.3,0.5,0.3,0.5,0.5
COc1ccc2nc(C)cc(OCC(=O)NCCc3ccc4c(c3)OCO4)c2c1,3.04,–,–,–,–,–,–,–
COc1ccc2nc(C)cc(OCC(=O)Nc3ccc(Cl)cc3)c2c1,0.2,–,–,–,–,–,–,–

Structure (SMILES),MIC [1] [µM],fold change (FC) [2],fold change (FC) [3],fold change (FC) [4],fold change (FC) [5],fold change (FC) [6],fold change (FC) [7],fold change (FC) [8]
COc1cccc(NC(=O)COc2cc(C)nc3ccc(OC)cc23)c1,0.57,–,–,–,–,–,–,–
COc1ccc2nc(C)cc(OCC(=O)NCc3ccc4c(c3)OCO4)c2c1,<0.063,> 95.8,> 32.5,> 6.3,> 25,> 12.5,> 130,> 12.5
COc1ccc2nc(C)cc(OCC(=O)NCCc3ccc(OC)c(OC)c3)c2c1,90.13,–,–,–,–,–,–,–
CC(=O)NC[C@H]1CN(c2ccc(N3CCOCC3)c(F)c2)C(=O)O1 [LINEZOLID],1.56,–,–,–,–,–,–,–
COc1ccc2nc(C)cc(OCC(=O)Nc3cccc(Br)c3)c2c1,0.37,–,–,–,–,–,–,–
COc1ccc2nc(C)cc(OCC(=O)Nc3ccccc3)c2c1,0.12,19.5,30,5,235,3.8,> 1250,1.8
COc1ccc2nc(C)cc(OCC(=O)NCc3ccccc3)c2c1,0.59,15.7,23.5,3.9,47,3,> 250,3.9
COc1ccc2nc(C)cc(OCC(=O)Nc3ccccc3Cl)c2c1,<0.067,–,–,–,–,–,–,–
COCCNC(=O)COc1cc(C)nc2ccc(OC)cc12,41.06,–,–,–,–,–,–,–
c1ccc(Cn2cnc3c(-c4ccco4)nccc32)cc1,0.31,61.3,10.1,20.2,> 81,20.2,> 81,20.2
COc1ccc2nc(C)cc(OCC(=O)Nc3ccc4c(c3)OCO4)c2c1,0.19,32.9,32.9,5.6,17.1,2.1,134,1.4
COc1ccc2nc(C)cc(OCC(=O)Nc3ccc(C)cc3)c2c1,<0.071,> 16.3,> 12.5,> 2,> 16.3,> 2,> 32.5,1
COc1ccc2nc(C)cc(OCC(=O)NCCc3ccccc3)c2c1,4.45,–,–,–,–,–,–,–
COc1ccc(NC(=O)COc2cc(C)nc3ccc(OC)cc23)cc1,0.14,15.9,24.5,3.1,24.5,4.1,63.9,3.1
CCCCCNC(=O)COc1cc(C)nc2ccc(OC)cc12,0.95,–,–,–,–,–,–,–
COc1ccc2nc(C)cc(OCC(=O)Nc3ccccc3OC)c2c1,0.14,15.9,24.5,4.1,46.9,1.4,46.9,6.1
